Laboratory results as given in ChEMBL document CHEMBL5303573, “Mapping human microbiome drug metabolism by gut bacteria and their genes” (Nature, 2019).

Legend:
[1] = The drug is tested on Collinsella intestinalis strain: DSM13280 for biotransformation. The drug concentrations were measured before and after a 12-h incubation by liquid-chromatography-coupled mass spectrometry (LC–MS); conditions: 2 µM
[2] = bacteroides thetaiotaomicron, 12 h, 2 µM
Description: The drug is tested on Bacteroides thetaiotaomicron strain: 3731 for biotransformation. The drug concentrations were measured before and after a 12-h incubation by liquid-chromatography-coupled mass spectrometry (LC–MS)

[3] = The drug is tested on Blautia luti strain: DSM14534 for biotransformation. The drug concentrations were measured before and after a 12-h incubation by liquid-chromatography-coupled mass spectrometry (LC–MS); format: ADME; set-up: dose 2 uM, timepoint 0 vs 12 hours; conditions: 2 µM
[4] = The drug is tested on Coprococcus comes strain: ATCC27758 for biotransformation. The drug concentrations were measured before and after a 12-h incubation by liquid-chromatography-coupled mass spectrometry (LC–MS); format: ADME; set-up: dose 2 uM, timepoint 0 vs 12 hours; conditions: 2 µM
[5] = bacteroides fragilis, 12 h, 2 µM
Description: The drug is tested on Bacteroides fragilis strain: 3397 (T10) for biotransformation. The drug concentrations were measured before and after a 12-h incubation by liquid-chromatography-coupled mass spectrometry (LC–MS)

[6] = The drug is tested on Bacteroides pectinophilus strain: ATCC43243 for biotransformation. The drug concentrations were measured before and after a 12-h incubation by liquid-chromatography-coupled mass spectrometry (LC–MS); conditions: 2 µM
[7] = The drug is tested on Bacteroides finegoldii strain: DSM17565 for biotransformation. The drug concentrations were measured before and after a 12-h incubation by liquid-chromatography-coupled mass spectrometry (LC–MS); conditions: 2 µM
[8] = segatella copri, 12 h, 2 µM
Description: The drug is tested on Prevotella copri strain: DSM18205 for biotransformation. The drug concentrations were measured before and after a 12-h incubation by liquid-chromatography-coupled mass spectrometry (LC–MS)

[9] = The drug is tested on Bacteroides fragilis strain: ATCC43859 for biotransformation. The drug concentrations were measured before and after a 12-h incubation by liquid-chromatography-coupled mass spectrometry (LC–MS); conditions: 2 µM
[10] = The drug is tested on Clostridium ramosum strain: DSM1402 for biotransformation. The drug concentrations were measured before and after a 12-h incubation by liquid-chromatography-coupled mass spectrometry (LC–MS); conditions: thomasclavelia ramosa, 2 µM
[11] = bacteroides thetaiotaomicron, 12 h, 2 µM; remark: listed apart in the source
Description: The drug is tested on Bacteroides thetaiotaomicron strain: 7330 for biotransformation. The drug concentrations were measured before and after a 12-h incubation by liquid-chromatography-coupled mass spectrometry (LC–MS)

[12] = The drug is tested on Blautia hansenii strain: DSM20583 for biotransformation. The drug concentrations were measured before and after a 12-h incubation by liquid-chromatography-coupled mass spectrometry (LC–MS); conditions: 2 µM
[13] = The drug is tested on Alistipes indistinctus strain: DSM22520 for biotransformation. The drug concentrations were measured before and after a 12-h incubation by liquid-chromatography-coupled mass spectrometry (LC–MS); conditions: 2 µM
[14] = The drug is tested on Clostridium sporogenes strain: ATCC15579 for biotransformation. The drug concentrations were measured before and after a 12-h incubation by liquid-chromatography-coupled mass spectrometry (LC–MS); conditions: 2 µM
[15] = The drug is tested on Providencia stuartii strain: ATCC25827 for biotransformation. The drug concentrations were measured before and after a 12-h incubation by liquid-chromatography-coupled mass spectrometry (LC–MS); conditions: 2 µM
[16] = akkermansia muciniphila, 12 h, 2 µM
Description: The drug is tested on Akkermansia muciniphila strain: ATCC BAA-835 for biotransformation. The drug concentrations were measured before and after a 12-h incubation by liquid-chromatography-coupled mass spectrometry (LC–MS)

[17] = The drug is tested on Bacteroides xylanisolvens strain: DSM18836 for biotransformation. The drug concentrations were measured before and after a 12-h incubation by liquid-chromatography-coupled mass spectrometry (LC–MS); conditions: 2 µM
[18] = enterocloster bolteae, 12 h, 2 µM
Description: The drug is tested on Clostridium bolteae strain: ATCCBAA-613 for biotransformation. The drug concentrations were measured before and after a 12-h incubation by liquid-chromatography-coupled mass spectrometry (LC–MS)

[19] = The drug is tested on Eubacterium ventriosum strain: ATCC27560 for biotransformation. The drug concentrations were measured before and after a 12-h incubation by liquid-chromatography-coupled mass spectrometry (LC–MS); format: ADME; set-up: dose 2 uM, timepoint 0 vs 12 hours; conditions: 2 µM

SMILES	Bacterial Biotransformation [1]	Bacterial Biotransformation [2]	Bacterial Biotransformation [3]	Bacterial Biotransformation [4]	Bacterial Biotransformation [5]	Bacterial Biotransformation [6]	Bacterial Biotransformation [7]	Bacterial Biotransformation [8]	Bacterial Biotransformation [9]	Bacterial Biotransformation [10]	Bacterial Biotransformation [11]	Bacterial Biotransformation [12]	Bacterial Biotransformation [13]	Bacterial Biotransformation [14]	Bacterial Biotransformation [15]	Bacterial Biotransformation [16]	Bacterial Biotransformation [17]	Bacterial Biotransformation [18]	Bacterial Biotransformation [19]
CC(C)NCC(O)c1ccc(NS(C)(=O)=O)cc1 (centres undefined) [SOTALOL]	Compound NOT metabolized	Compound NOT metabolized	Compound NOT metabolized	Compound NOT metabolized	Compound metabolized	Compound NOT metabolized	Compound NOT metabolized	Compound NOT metabolized	Compound metabolized	Compound NOT metabolized	Compound metabolized	Compound NOT metabolized	Compound NOT metabolized	Compound NOT metabolized	Compound NOT metabolized	Compound NOT metabolized	Compound NOT metabolized	Compound NOT metabolized	
CC(CN(C)C)CN1c2ccccc2CCc2ccccc21.O=C(O)/C=C\C(=O)O (centres undefined) [TRIMIPRAMINE MALEATE]	Compound NOT metabolized	Compound NOT metabolized	Compound NOT metabolized	Compound NOT metabolized	Compound NOT metabolized	Compound NOT metabolized	Compound NOT metabolized		Compound NOT metabolized	Compound NOT metabolized	Compound NOT metabolized	Compound NOT metabolized	Compound NOT metabolized	Compound NOT metabolized	Compound NOT metabolized	Compound NOT metabolized	Compound NOT metabolized	Compound NOT metabolized	Compound NOT metabolized
CC(N)C12CC3CC(CC(C3)C1)C2 (centres undefined) [RIMANTADINE]	Compound NOT metabolized	Compound NOT metabolized	Compound NOT metabolized	Compound NOT metabolized	Compound NOT metabolized	Compound NOT metabolized	Compound NOT metabolized	Compound NOT metabolized	Compound NOT metabolized	Compound NOT metabolized	Compound NOT metabolized	Compound NOT metabolized	Compound NOT metabolized	Compound NOT metabolized	Compound NOT metabolized		Compound NOT metabolized	Compound NOT metabolized	Compound NOT metabolized
CCN(C(C)=O)c1cccc(-c2ccnc3c(C#N)cnn23)c1 [ZALEPLON]			Compound NOT metabolized	Compound NOT metabolized	Compound NOT metabolized	Compound NOT metabolized		Compound NOT metabolized	Compound metabolized	Compound NOT metabolized		Compound metabolized	Compound NOT metabolized	Compound NOT metabolized	Compound NOT metabolized	Compound NOT metabolized	Compound metabolized		Compound NOT metabolized
CCOC(=O)C1=C[C@]2(CC)CCCN3CCc4c(n1c1ccccc41)[C@@H]32 [VINPOCETINE]	Compound NOT metabolized	Compound NOT metabolized	Compound NOT metabolized	Compound NOT metabolized	Compound NOT metabolized	Compound NOT metabolized	Compound NOT metabolized	Compound NOT metabolized	Compound NOT metabolized	Compound NOT metabolized	Compound NOT metabolized	Compound metabolized	Compound NOT metabolized	Compound NOT metabolized	Compound NOT metabolized			Compound NOT metabolized	Compound NOT metabolized
CCCCc1nc(Cl)c(CO)n1Cc1ccc(-c2ccccc2-c2nn[nH]n2)cc1 [LOSARTAN]	Compound NOT metabolized	Compound NOT metabolized	Compound NOT metabolized	Compound NOT metabolized		Compound NOT metabolized	Compound metabolized	Compound NOT metabolized	Compound metabolized	Compound NOT metabolized		Compound NOT metabolized	Compound NOT metabolized	Compound NOT metabolized	Compound NOT metabolized	Compound metabolized	Compound metabolized	Compound NOT metabolized	Compound NOT metabolized
CC(C)c1nc(N(C)S(C)(=O)=O)nc(-c2ccc(F)cc2)c1/C=C/[C@@H](O)C[C@@H](O)CC(=O)[O-].CC(C)c1nc(N(C)S(C)(=O)=O)nc(-c2ccc(F)cc2)c1/C=C/[C@@H](O)C[C@@H](O)CC(=O)[O-].[Ca+2] [ROSUVASTATIN CALCIUM]	Compound NOT metabolized	Compound NOT metabolized	Compound NOT metabolized	Compound NOT metabolized	Compound NOT metabolized	Compound NOT metabolized	Compound NOT metabolized		Compound NOT metabolized	Compound NOT metabolized	Compound NOT metabolized	Compound NOT metabolized	Compound NOT metabolized	Compound NOT metabolized	Compound NOT metabolized		Compound NOT metabolized	Compound NOT metabolized	Compound NOT metabolized
